Source: PMC5177656, “Cytosolic Triosephosphate Isomerase from Arabidopsis thaliana Is Reversibly Modified by Glutathione on Cysteines 127 and 218” (Frontiers in Plant Science, 2016)

What was measured:
GRXC1 = GRXC1 (Arabidopsis thaliana, UniProt Q8L8T2); assay: GSH-disulfide transhydrogenase assay coupled to glutathione reductase, NADPH at […] nm; assay type: biochemical; conditions: 0.7 mM HED, 1 mM GSH, 0.2 mM NADPH, pH 8.0, 30°C
GRXC2 = GRXC2 (Arabidopsis thaliana, UniProt Q9FNE2); assay: as above; assay type: biochemical; conditions: 0.7 mM HED, 1 mM GSH, 0.2 mM NADPH, pH 8.0, 30°C
Sequence of GRXC2 (Q9FNE2 whole entry): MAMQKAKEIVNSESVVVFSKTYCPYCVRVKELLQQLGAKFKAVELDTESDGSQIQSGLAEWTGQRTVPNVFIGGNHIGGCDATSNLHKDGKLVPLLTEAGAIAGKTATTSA

Sequence of GRXC1 (Q8L8T2 whole entry): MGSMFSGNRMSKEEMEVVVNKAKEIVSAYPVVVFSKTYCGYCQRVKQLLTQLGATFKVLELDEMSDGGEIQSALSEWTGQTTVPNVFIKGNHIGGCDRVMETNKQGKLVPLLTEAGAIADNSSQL

OCCSSCCO [HED]
GSH-disulfide transhydrogenase assay coupled to glutathione reductase, NADPH at (GRXC1): specific activities of recombinant GRXs were measured using the artificial substrate HED
GSH-disulfide transhydrogenase assay coupled to glutathione reductase, NADPH at (GRXC2): specific activities of recombinant GRXs were measured using the artificial substrate HED
